Series [1] is described as follows: Solubility of WHI-P131 free base and chloride salt in various liquids. The series is classed as physicochemical. The method, then:
The solubility of WHI-P131 free base was measured in water, propylene glycol, polyethylene glycols (PEGs), ethanol, and triglycerides. The solubility of WHI-P131 is very poor in water. It was about 35 times more soluble in C8-C10 medium chain triglyceride (Captex 300) than in water. It was much more soluble in ethanol and hydrophilic cosolvents such as propylene glycol and PEGs.
Parallel solubility measurements were also carried out using WHI-P131 chloride salt. […] In contrast, the solubility of WHI-P131 chloride decreased drastically in all other liquids. […] This fact underscores the importance of knowing the solubility profile of both the free base and salt forms of an ionizable compound when making choices of its delivery vehicles.

Structures are written as SMILES. Structures can show the parent of a compound that is named as a salt.

Consider 39 compounds from patent US20020111360A1, “Quinazoline formulations and therapeutic use thereof” (PARKER HUGHES INSTITUTE, priority 1999, published 2002).

In turn, `COc1cc2ncnc(Nc3ccc(Br)cc3Br)c2cc1OC` [P-263, 4-(2′,4′-Dibromophenyl)-amino-6,7-dimethoxyquinazoline] displayed a melting point of 257 to 262 °C.

Take `COc1cc2ncnc(Nc3ccc(O)cc3O)c2cc1OC` [P-192, 4-(2′,4′-Dihydroxyphenyl)-amino-6,7-dimethoxyquinazoline]: the melting point is 240 °C (dec.).

Take `COc1cc2ncnc(Nc3cnc(O)nc3O)c2cc1OC` [P-215, 4-(2′,4′-Dihydroxyl-1′,3′-diazine-5′)-amino-6,7-dime-thoxyquinazoline]: the melting point is over 300 °C.

Compound `COc1cc2ncnc(Nc3cc(F)c(O)c(F)c3)c2cc1OC` (as salt: salt) [P-408, 4-(4′-Hydroxyl-3′,5′-difluorophenyl)-amino-6,7-dimethoxy-quinazoline] returned a melting point of 228 to 230 °C.

Compound `COc1cc2ncnc(Nc3c(Br)cccc3Br)c2cc1OC` [P-262, 4-(2′,6′-Dibromophenyl)-amino-6,7-dimethoxyquinazoline] registered a melting point of 243 to 246 °C.

Consider `COc1cc2ncnc(Nc3cc(Cl)ccc3O)c2cc1OC` (as salt: salt) [P-93, 4-(3′-Chlooro-6′-hydroxylphenyl)amino-6,7-dimethoxyquinazoline], for which the melting point is 295 °C (dec.).

With `COc1cc2ncnc(Nc3ccc(O)cc3)c2cc1OC` [WHI-P131 Free base, 4-(4′-Hydroxylphenyl)-amino-6,7-dimethoxyquinazoline], the Solubility in series [1] (Captex 300) was 0.88 ± 0.08 mg/mL; in series [1] (Ethanol) it was 18.6 ± 0.5 mg/mL; in series [1] (PEG200), over 100 mg/mL; in series [1] (PEG300), over 185 mg/mL; in series [1] (Propylene glycol), 19.5 ± 0.7 mg/mL; in series [1] (Water) it was 0.025 mg/mL. Besides, the Solubility in series [1] (ethanol) was 1.86%; in series [1] (polyethylene glycols) it was “greater than 10%”; in series [1] (propylene glycol), 1.95%.

The compound `COc1cc2ncnc(Nc3cc(C(F)(F)F)cc(C(F)(F)F)c3)c2cc1OC` (as salt: salt) [P-366, 4-(3′,5′-Ditrifluoromethylphenyl)-amno-6,7-dimethoxyquinazoline] yielded a melting point of 270 to 272 °C.

Take `COc1cc2ncnc(Nc3cccc(C(C)O)c3)c2cc1OC` (centres unmarked) [P-276, 4-[3′-(1″-Hydroxyethyl)]-amino-6,7-dimethoxyquinazoline]: the melting point lay within 215 to 218 °C.

The compound `COc1cc2ncnc(Nc3ccc(I)cc3)c2cc1OC` (as salt: salt) [P-300, 4-(4′-Iodophenyl)-amino-6,7-dimethoxyquinazoline] returned a melting point of 240 to 242 °C.

Compound `COc1cc2ncnc(Nc3ccccc3I)c2cc1OC` (as salt: salt) [P-270, 4-(2′-Iodophenyl)-amino-6,7-dimethoxyquinazoline] gave a melting point of 225 to 230 °C.

Turning to `COc1cc2ncnc(Nc3ncccc3O)c2cc1OC` [P-150, 4-[(3′-Hydroxylpyridine)-2′]-amino-6,7-dimethoxyquinazoline], the melting point fell in the range of 185 to 187 °C.

Compound `COc1cc2ncnc(Nc3c(Br)cc(C)cc3Br)c2cc1OC` [P-241, 4-(2′,6′-Dibromo-4′-methylphenyl)-amino-6,7-dimethoxyquinazoline] had a melting point of 235 to 237 °C.

As to `COc1cc2ncnc(Nc3ccccc3Br)c2cc1OC` (as salt: salt) [P-261, 4-(2′-Bromophenyl)-amino-6,7-dimethoxyquinazoline], the melting point fell in the range of 241 to 243 °C.

Regarding `COc1cc2ncnc(Nc3ccc(C(F)(F)F)cc3)c2cc1OC` [P-223, 4-(4′-Trifluoromethylphenyl)-amino-6,7-dimethoxyquinazoline], the melting point was 243 to 245 °C.

Turning to `COc1cc2ncnc(Nc3ccc4c(c3)Cc3cc(Br)ccc3-4)c2cc1OC` (as salt: salt) [P-160, 4-[(7′-Bromofluorene)-2]-amino-6,7-dimethoxyquinazoline], the melting point fell in the range of 254 to 256 °C.

Compound `COc1cc2ncnc(Nc3ccc(O)c(F)c3)c2cc1OC` (as salt: salt) [P-369, 4-(4′Hydroxyl-3′-fluorophenyl)-amino-6,7-dimethoxyquinazoline] had a melting point of 268 to 270 °C.

`COc1cc2ncnc(Nc3ccccc3CO)c2cc1OC` [P-191, 4-(6′-Hydroxymethylphenyl)-amino-6,7-dimethosyquinazoline] gave a melting point of 215 to 218 °C.

In turn, `COc1cc2ncnc(Nc3cc(Br)c(C)c(Br)c3)c2cc1OC` [P-212, 4-(3′,5′-Dibromo-4′-methylphenyl)-amino-6,7-dimethoxyquinazoline] registered a melting point of 275 to 279 °C.

`COc1cc2ncnc(Nc3ccc(C)c(Br)c3)c2cc1OC` (as salt: salt) [P-111, 4-(3′-Bromo-4′-methylphenyl)-amino-6,7-dimethoxyquinazoline] registered a melting point of 225 to 228 °C.

`COc1cc2ncnc(Nc3c(Br)cc(Br)cc3Br)c2cc1OC` [P-222, 4-(2′,4′,6′-Tribromophenyl)amino-6,7-dimethoxyquinazoline] came in with a melting point of 250 to 255 °C.

Take `COc1cc2ncnc(Nc3ccc(C(c4ccc(N)cc4)(C(F)(F)F)C(F)(F)F)cc3)c2cc1OC` (as salt: salt) [P-352, 4-{4′-[2″-(4″′-Aminophenyl)-hexafluoropropyl]phenyl}-amino-6,7-dimethoxyquinazoline]: the melting point fell in the range of 280 to 282 °C.

`COc1cc2ncnc(Nc3ccccc3C(F)(F)F)c2cc1OC` [P-228, 4-(2′-Trifluoromethylphenyl)-amino-6,7-dimethoxyquinazoline] gave a melting point of 242 to 245 °C.

In turn, `COc1cc2ncnc(Nc3cccc4c(O)cccc34)c2cc1OC` (as salt: salt) [P-293, 4-(1′-Hydroxy-naphthyl-5′)-amino-6,70-dimethoxyquina-zoline] gave a melting point of 204 to 205 °C.

`COc1cc2ncnc(Nc3cc(Cl)c(O)c(Cl)c3)c2cc1OC` [P-189, 4-(4′-Hydroxyl-3′,5′-dichlorophenyl)amino-6,7-dimethoxyquinazoline]: the melting point was in the range of 293 to 295 °C.

As for `COc1cc2ncnc(Nc3ccc(CCO)cc3)c2cc1OC` [P-265, 4-[4′-(2″-Hydroxylethylphenyl)]-amino-6,7-dimethoxyqui-nazoline], the melting point fell in the range of 235 to 240 °C.

In turn, `COc1cc2ncnc(Nc3ccc(Br)cc3C(=O)O)c2cc1OC` [P-88, 4-(4′-Bromo-2′-caboxylphenyl)-amino-6,7-dimethoxyquinazoline] gave a melting point of over 300 °C.

Compound `COc1cc2ncnc(Nc3c(F)c(F)c(Br)c(F)c3F)c2cc1OC` (as salt: salt) [P-144, 4-(2′,3′,5′,6′-Tetrafluoro-4′-bromolphenyl)-amino-6,7-dime-thoxyquinazoline] displayed a melting point of 180 to 182 °C.

Take `COc1cc2ncnc(Nc3ccc(O)c(C(=O)O)c3)c2cc1OC` [P-182, 4-(4′-Hydroxyl-3′-Carboxyphenyl)-amino-6,7-dimethoxyquinazoline]: the melting point was over 300 °C.

Consider `COc1cc2ncnc(Nc3ccccc3OC(F)(F)F)c2cc1OC` (as salt: salt) [P-365, 4-(2′-Trifluoromethoxylphenyl)-amino-6,7-dimethoxyquinazoline], for which the melting point was 235 to 237 °C.

For `COc1cc2ncnc(Nc3ccc(Br)cc3CO)c2cc1OC` (as salt: salt) [P-190, 4-(4′-Bromo-6′-hydroxymethylphenyl)-amino-6,7-dimethoxyquinazoline], the melting point was in the range of 222 to 223 °C.

`COc1cc2ncnc(Nc3c(O)ccc4ccccc34)c2cc1OC` (as salt: salt) [P-275, 4-(2′-Naphthol-1)-amino-6,7-dimethoxyquinazoline] showed a melting point of 218 to 220 °C.

In turn, `COc1cc2ncnc(Nc3ccc(O)cc3Cl)c2cc1OC` (as salt: salt) [P-278, 4-(4′-Hydroxyl-2′-chlorophenyl)-amino-6,7-dimethoxy-quinazoline] displayed a melting point of 245 to 247 °C.

As to `COc1cc2ncnc(Nc3ccc(Cl)c4ccccc34)c2cc1OC` (as salt: salt) [P-415, 4-(4′-Chloronaphthy-1′)-amino-6,7-dimethoxyquinazoline], the melting point lay in the range of 245 to 248 °C.

`COc1cc2ncnc(Nc3cc(-c4ccccc4)c(O)c(-c4ccccc4)c3)c2cc1OC` [P-277, 4-(4′-Hydroxy-3′,5′-diphenylphenyl)-amino-6,7-dime-hoxyquinazoline] had a melting point of 255 to 257 °C.

`COc1cc2ncnc(Nc3cc(I)c(O)c(I)c3)c2cc1OC` (as salt: salt) [P-294, 4-(4′-Hydroxy-3,5-diiodophenyl)-amino-6,7-dimethoxy-quinazoline] returned a melting point of 259 to 260 °C.

Compound `COc1cc2ncnc(Nc3ccc(O)c(I)c3)c2cc1OC` (as salt: salt) [P-299, 4-(4′-Hydroxy-3′-iodophenyl)-amino-6,7-dimethoxyquinazoline] returned a melting point of 248 to 250 °C.

Consider `COc1cc2ncnc(Nc3cc(Br)c(C)cc3Br)c2cc1OC` (as salt: salt) [P-211, 4-(2′,5′-Dibromo-4′-methylphenyl)-amino-6,7-dimethoxyquinazoline], for which the melting point was in the range of 282 to 284 °C.

In turn, `COc1cc2ncnc(Nc3ccc(C)c(Br)c3Br)c2cc1OC` [P-210, 4-(2′,3′-Dibromo-4′-methylphenyl)-amino-6,7-dimethoxyquinazoline] returned a melting point of 233 to 236 °C.

A word on the melting point: it is the temperature, or range, at which the solid turns liquid.
